The values below come from patent publication US8629166B2, “5-cycloalkyl- or 5-heterocyclyl-nicotinamides” (Hoffmann-La Roche Inc., priority 2011, dated 2014).

For one assay, the system named is ABCA1 protein. Kind of assay: Detection of upregulation of ABCA1 protein in cells (ApoA-I binding, high content image analysis). Type of assay: cell-based. The conditions noted are these: THP-1 macrophage cells, compound at 3 μM, 24 hrs. On the procedure:
Detection of Upregulation of ABCA1 Protein in Cells
The ability of compounds of the invention to increase the level of ABCA1 protein is determined in replicate cultures of THP-1 macrophage cells in 96-well microplates. Cells are plated at an initial density of 100,000 cells/well in 100 μl medium and differentiated to adherent macrophages with the addition of PMA (100 nM) for 68 hrs in 10% fetal bovine serum, 3 μl/L of b-mercaptoethanol, RPMI-1640 medium. Then, cells are incubated with RPMI-1640 medium containing 1% FCS, 25 μg/ml acetylated LDL, for 24 hours at 37° C. Following incubation with acetylated LDL, cells are washed twice with 50 μl PBS and incubated with 100 μl of RPMI-1640 medium containing the compound of interest solubilized in DMSO for an additional 24 hrs. The final DMSO concentration in presence of cells is maintained at 0.5%. ApoA-I binding assay using High Content Image Analysis is initiated by replacing with fresh medium, RPMI without Phenol Red, 0.2% BSA containing AlexaFluor®647 labeled ApoA-I for 2 h/37° C./5% CO2. Then, cells are fixed with 4% Formaldehyde in PBS (15 min, RT). Following Nuclei are stained with Hoechst solution (3 μM PBS) and Cytoplasm with Cell Mask Blue (2 μg/ml PBS), 15 min, RT. Finally the stained cells are fixed with a second round of formaldehyde treatment. Fixed stained cells are washed and kept in PBS at 4° C. and can be read immediately until one month after preparation.
The Alexa Fluor 647-labeled Apolipoprotein A-I (20 nM) was prepared as follows: Human recombinant Apolipoprotein A-I (ApoA-I) was exchanged to a buffer of 0.02 M NaHCO3 at pH 8.2 on an NAP desalting column (GE Healthcare) and brought to a concentration to 40 μM (1.13 mg/ml) by adjustment with the same buffer. The ApoA-I was fluorescently labeled by incubation with Alexa Fluor carboxylic acid succimidyl ester (Alexa Fluor 647, Invitrogen A-20006) at a 2:1 molar ratio (Alexa to ApoA-I) for 1 h under shaking at RT. The remaining unconjugated label was removed by buffer exchange to 0.02M NaHCO3 at pH 8.2.
Imaging and data collection were performed on an OPERA confocal microplate imaging reader using a 20× water immersion objective and UV360 or 405 laser to identify the cell nuclei and a 635 laser to identify the fluorescent ApoA-I. Eight fields of view are captured per well. Image capture and analysis was performed with the Acapella software. Background fluorescence detected in control wells without ApoA-I was subtracted.
Using XLfit3 program (ID Business Solutions Ltd. UK), the model 205 for Dose Response One Site is used to calculate the EC50 values. […] Particularly, the compounds of the present invention have EC50 values in a range of 0.1 μM to 3 μm.

Another assay addresses T1, human CB1 receptor (Homo sapiens, UniProt P21554).
T1 construct: expressed in transfected cells; host or cells: human embryonic kidney (HEK) cells, Semliki Forest Virus system, membrane preparation
Kind of assay: CB1 receptor affinity ([3H]-CP-55,940 displacement, HEK cell membranes). The assay is classed as binding. The conditions noted are these: displacement of [3H]-CP-55,940 at 10 μM. On the procedure: (§1) CB1 and CB2 Receptor Affinity
(§2) The affinity of the compounds of the invention for cannabinoid receptors was determined using membrane preparations of human embryonic kidney (HEK) cells in which the human CB1 receptor is transiently transfected using a Semliki Forest Virus system in conjunction with [3H]-CP-55,940 as radioligand. After incubation of freshly prepared cell membrane preparation with the [^3H]-ligand, with or without addition of compounds of the invention, separation of bound and free ligand was performed by filtration over glass fiber filters. Radioactivity on the filter was measured by scintillation counting.
(§3) The ability of the compounds to displace the radioligand [^3H]-CP-55,940 was measured at a concentration of 10 μM and values provided as [% inhibition @ 10 μM] both for the CB1 and CB2 receptor assay, The lower % inhibition is, the lower the likelihood of side effects based on CB1 or CB2 receptor inhibition is.
On the technique in general: Displacement assays read how much labelled ligand stays bound in the presence of the test substance.

For the next assay, the target named is T2, human CB2 receptor (Homo sapiens, UniProt P34972).
T2 construct: expressed in transfected cells; host or cells: human embryonic kidney (HEK) cells, Semliki Forest Virus system, membrane preparation
Kind of assay: CB2 receptor affinity ([3H]-CP-55,940 displacement, HEK cell membranes). Conditions: displacement of [3H]-CP-55,940 at 10 μM. Type of assay: binding. On the procedure: as §1
as §2, with “cannabinoid CB2” for “cannabinoid”, “CB2” for “CB1”, “[^3H]-CP-55,940” for “[3H]-CP-55,940”
as §3

T2 sequence (P34972 whole entry): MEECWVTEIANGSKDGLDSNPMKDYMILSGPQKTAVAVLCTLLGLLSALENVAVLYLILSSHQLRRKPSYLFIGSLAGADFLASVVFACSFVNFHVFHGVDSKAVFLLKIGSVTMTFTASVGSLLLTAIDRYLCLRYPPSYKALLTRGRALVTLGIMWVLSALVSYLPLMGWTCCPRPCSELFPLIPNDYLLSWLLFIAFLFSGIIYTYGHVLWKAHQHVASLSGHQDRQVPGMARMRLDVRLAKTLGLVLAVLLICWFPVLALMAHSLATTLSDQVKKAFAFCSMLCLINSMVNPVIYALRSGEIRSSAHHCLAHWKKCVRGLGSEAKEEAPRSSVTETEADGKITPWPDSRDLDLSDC
T1 sequence (P21554 whole entry): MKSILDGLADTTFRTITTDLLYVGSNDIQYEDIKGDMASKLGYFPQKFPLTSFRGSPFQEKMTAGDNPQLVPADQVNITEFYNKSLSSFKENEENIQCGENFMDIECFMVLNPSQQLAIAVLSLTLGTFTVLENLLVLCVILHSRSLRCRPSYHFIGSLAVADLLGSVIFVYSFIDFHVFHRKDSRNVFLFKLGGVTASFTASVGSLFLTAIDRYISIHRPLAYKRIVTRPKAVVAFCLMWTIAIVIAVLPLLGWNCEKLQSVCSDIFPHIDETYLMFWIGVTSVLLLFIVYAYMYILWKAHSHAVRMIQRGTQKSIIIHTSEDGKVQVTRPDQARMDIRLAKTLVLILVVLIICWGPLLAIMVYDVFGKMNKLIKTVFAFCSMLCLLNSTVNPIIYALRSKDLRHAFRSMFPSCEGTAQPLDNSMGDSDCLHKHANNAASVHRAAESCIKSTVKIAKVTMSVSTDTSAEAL

As for `O=C(NCc1csc(C2CC2)n1)c1cnc(OCC(F)(F)F)c(C2CCCC2)c1` [Example 18, 5-cyclopentyl-N-(2-cyclopropyl-thiazol-4-ylmethyl)-6-(2,2,2-trifluoro-ethoxy)-nicotinamide], the “% increase of ABCA1 at 3 μM” value in the assay with ABCA1 protein is over 45% @ 3 μM. The “CB1 receptor affinity [% inhibition @ 10 μM]” value on human CB1 receptor is given as 17 % inhibition. Besides, the “CB2 receptor affinity [% inhibition @ 10 μM]” value at human CB2 receptor turned out to be 14 % inhibition.

As to `O=C(Nc1cncnc1)c1cnc(OCC(F)(F)F)c(C2CCCCC2)c1` [Example 19, 5-cyclohexyl-N-pyrimidin-5-yl-6-(2,2,2-trifluoro-ethoxy)-nicotinamide], in the assay on ABCA1 protein, the “% increase of ABCA1 at 3 μM” value is listed as over 45% @ 3 μM. Moreover, at human CB1 receptor, the “CB1 receptor affinity [% inhibition @ 10 μM]” value is given as 20 % inhibition. The “CB2 receptor affinity [% inhibition @ 10 μM]” value at human CB2 receptor is −11 % inhibition.

For `O=C(Nc1ccnnc1)c1cnc(OCC(F)(F)F)c(C2CCCCC2)c1` [Example 20, 5-cyclohexyl-N-pyridazin-4-yl-6-(2,2,2-trifluoro-ethoxy)-nicotinamide], in the assay on ABCA1 protein, the “% increase of ABCA1 at 3 μM” value was over 45% @ 3 μM. At human CB1 receptor, the “CB1 receptor affinity [% inhibition @ 10 μM]” value is 36 % inhibition. For the same molecule, the “CB2 receptor affinity [% inhibition @ 10 μM]” value on human CB2 receptor is 6 % inhibition.

For the molecule `O=C(Nc1ccncn1)c1cnc(OCC(F)(F)F)c(C2CCCCC2)c1` [Example 21, 5-cyclohexyl-N-pyrimidin-4-yl-6-(2,2,2-trifluoro-ethoxy)-nicotinamide], the “% increase of ABCA1 at 3 μM” value in the assay on ABCA1 protein is on record as over 45% @ 3 μM. In addition, the “CB1 receptor affinity [% inhibition @ 10 μM]” value at human CB1 receptor is given as 38 % inhibition. The “CB2 receptor affinity [% inhibition @ 10 μM]” value on human CB2 receptor was −4 % inhibition.

For the molecule `O=C(Nc1cncnc1)c1cnc(OCC(F)(F)F)c(C2CCCC2)c1` [Example 22, 5-cyclopentyl-N-pyrimidin-5-yl-6-(2,2,2-trifluoro-ethoxy)-nicotinamide], in the assay on ABCA1 protein, the “% increase of ABCA1 at 3 μM” value is over 45% @ 3 μM. The “CB1 receptor affinity [% inhibition @ 10 μM]” value at human CB1 receptor is 12 % inhibition. The “CB2 receptor affinity [% inhibition @ 10 μM]” value on human CB2 receptor is on record as −11 % inhibition.

Regarding `O=C(Nc1ccncn1)c1cnc(OCC(F)(F)F)c(C2CCCC2)c1` [Example 23, 5-cyclopentyl-N-pyrimidin-4-yl-6-(2,2,2-trifluoro-ethoxy)-nicotinamide], the “% increase of ABCA1 at 3 μM” value with ABCA1 protein is over 45% @ 3 μM. The “CB1 receptor affinity [% inhibition @ 10 μM]” value on human CB1 receptor is on record as 31 % inhibition. In addition, at human CB2 receptor, the “CB2 receptor affinity [% inhibition @ 10 μM]” value is −3 % inhibition.

As for `N#Cc1ccc(NC(=O)c2cnc(OCC(F)(F)F)c(C3CCCCC3)c2)cc1` [Example 24, N-(4-cyano-phenyl)-5-cyclohexyl-6-(2,2,2-trifluoro-ethoxy)-nicotinamide], in the assay on ABCA1 protein, the “% increase of ABCA1 at 3 μM” value is over 45% @ 3 μM. Besides, the “CB1 receptor affinity [% inhibition @ 10 μM]” value on human CB1 receptor was determined as 10 % inhibition. Also, on human CB2 receptor, the “CB2 receptor affinity [% inhibition @ 10 μM]” value was −17 % inhibition.

Regarding `N#Cc1ccc(NC(=O)c2cnc(OCC(F)(F)F)c(C3CCCC3)c2)cc1` [Example 25, N-(4-cyano-phenyl)-5-cyclopentyl-6-(2,2,2-trifluoro-ethoxy)-nicotinamide], the “% increase of ABCA1 at 3 μM” value in the assay on ABCA1 protein is over 45% @ 3 μM. For the same molecule, at human CB1 receptor, the “CB1 receptor affinity [% inhibition @ 10 μM]” value stood at 27 % inhibition. For the same molecule, the “CB2 receptor affinity [% inhibition @ 10 μM]” value at human CB2 receptor worked out at 0 % inhibition.

Regarding `O=C(Nc1ccnnc1)c1cnc(OCC(F)(F)F)c(C2CCCC2)c1` [Example 26, 5-cyclopentyl-N-pyridazin-4-yl-6-(2,2,2-trifluoro-ethoxy)-nicotinamide], the “% increase of ABCA1 at 3 μM” value with ABCA1 protein is reported as over 45% @ 3 μM. In addition, on human CB1 receptor, the “CB1 receptor affinity [% inhibition @ 10 μM]” value is on record as 24 % inhibition. Further, the “CB2 receptor affinity [% inhibition @ 10 μM]” value on human CB2 receptor is given as −2 % inhibition.

`O=C(Nc1cnccn1)c1cnc(OCC(F)(F)F)c(C2CCCCC2)c1` [Example 27, 5-cyclohexyl-N-pyrazin-2-yl-6-(2,2,2-trifluoro-ethoxy)-nicotinamide]: the “% increase of ABCA1 at 3 μM” value in the assay with ABCA1 protein is reported as over 45% @ 3 μM. Also, the “CB1 receptor affinity [% inhibition @ 10 μM]” value at human CB1 receptor stood at 18 % inhibition. The “CB2 receptor affinity [% inhibition @ 10 μM]” value at human CB2 receptor was determined as 11 % inhibition.

`O=C(Nc1cnccn1)c1cnc(OCC(F)(F)F)c(C2CCCC2)c1` [Example 28, 5-cyclopentyl-N-pyrazin-2-yl-6-(2,2,2-trifluoro-ethoxy)-nicotinamide]: in the assay on ABCA1 protein, the “% increase of ABCA1 at 3 μM” value was over 45% @ 3 μM. In addition, on human CB1 receptor, the “CB1 receptor affinity [% inhibition @ 10 μM]” value is 12 % inhibition. Besides, the “CB2 receptor affinity [% inhibition @ 10 μM]” value on human CB2 receptor amounted to 2 % inhibition.
